Experiments:
[1] = Metal complexation constants, Fe system (spectrophotometric titration; pM by Hyss); type: binding; conditions: for Log β3: Fe(III) overall complexation constant; for pFe^3+: total iron 10^−6 M, ligand 10^−5 M, pH 7.4, calculated from experimental pKa and complexation constants
Method: Compounds of this invention are designed to improve properties to known deferiprone analogues. […]. The definition of pFe^3+ used herein is the concentration of ferric ion in solution when the total amount of iron equals 10^−6 M and the concentration of ligand is 10^−5 M and pH is 7.4. It is calculated using experimental determined pKa and metal complexation constants using Hyperquad software (Version 2.1, Peter Gans, University of Leeds). The lowering of the pKa value of the C3 phenolic OH to less than 8.8 ensures that a higher pFe^3+ value when combined with a favorable complexation constant β3. The concept of complexation is detailed below.
The stepwise and overall complexation constants of a bidentate ligand such as 3-hydroxy-4-pyridinone follow: Fe(III)+Ligand→Fe[Ligand]1K1 Fe[Ligand]1+Ligand→Fe[Ligand]2K2 Fe[Ligand]2+Ligand→Fe[Ligand]3K3 Complexation constant β3=K1.K2.K3
Stepwise formation constants for M^n+-ligand systems were determined by spectrophotometric titration when metal complexes have a strong absorbance in the visible region due to ligand to metal charge transfer. In a typical experiment, the sample solution was prepared according to the following method: Apo6619 (10.7 mg) was weighed into an 80-ml beaker, followed by the addition of 0.1 M NaCl (50 ml). The mixture was sonicated for 10 minutes to give a clear colorless solution. Iron stock solution (atomic absorption standard, Aldrich, 496 μl, 8.93E-06 moles) was pipetted into the solution followed by the addition of 1.000 N NaOH (137 μl). The molar ratio between the total iron and the total Apo6619 was 1:5.4. The mixture was allowed to equilibrate at room temperature overnight. Nitrogen was allowed to bubble through the solution. 1.000 N Hydrochloric acid (3 ml) was then added to the solution to give pH 1.5. The solution was allowed to equilibrate at 22° C. for 3 hours.
A sipper system was used for the circulation of the sample solution between the beaker and the flow cell.
The sample solution was titrated against standard NaOH solutions at 22° C. to reach pH 6.89. After each addition of base the solution was allowed to equilibrate until a constant pH reading was reached. The pH and the UV-Vis spectrum were recorded for each measurement. For each measurement enough base was added so that there was a slight increase in the absorbance of the spectrum. The solution was titrated until there was no obvious increase in the spectra after several subsequent additions of base. Altogether 64 measurements were taken to finish the experiment.
[…]; pM^n+ is defined as −log [M(H2O)m]^n+ at physiological conditions, i.e.: pH 7.4, a ligand concentration of 10 μM, and a metal concentration of 1 μM.
To calculate pM^n+ for a MLn system, βn and pKa values are needed (βn are the formation constants for M^n++n L^− ? MLn; pKa are the equilibrium constants for L^−+n H^+ ? LHn^(n−1)+). The pM^n+ can be calculated by using Hyss software (Hyperquad Stimulation and Speciation software: HYSS2© 2000 Protonic Sofware).

[2] = test system: Iron Overloaded Rat; assay: Urinary and fecal iron excretion in the iron overloaded rat (first study, 450 μmoles/kg); type: in vivo; conditions: for urinary excretion of iron compared with deferiprone: 450 μmol/kg; for Fecal excretion (fecal iron, three days after chelator administration): 450 μmoles/kg oral, n=6, mean ± 1SD
Text: The purpose of this study was to determine the effectiveness of Apo6619 and Apo6617 in promoting iron excretion in the iron overloaded rat model. Iron overloading was achieved by administration of iron dextran. Iron overloading using iron dextran has previously been used to assess chelator efficacy in mice (Kontoghiorghes G. J., Mol. Pharmacol. 1986, 30(6), 670-3; Bartfay et al., Cardiovasc Res. 1999, 43(4), 892-900), gerbils (Hershko et al., J. Lab Clin Med 2002, 139, 50-58), rats (Rakba N. Biochem Pharmacol. 1998, 55(11):1796-1806) and primates (Bergeron et. al., Blood, 1992, 79(7), 1882-1890). The iron loading regime used in this study results in a 20-fold increase in liver iron and a 3.8-fold increase in cardiac iron levels in male rats.
Six male Sprague-Dawley rats (weighing between 200-250 gms) were received from Charles River Laboratories, Montreal, Quebec, Canada. Rats were iron loaded by administration of iron dextran intraperitoneally at a dose of 100 mg/kg, twice weekly for a period of 4 weeks for a total of 8 injections (iron dextran, Sigma). The total volume of iron dextran injected was 1 mL/kg. Following an eight week period, rats were transferred to metabolic cages (one rat/cage). Once the animals were in the metabolic cages, excreta (both urine and feces) were collected daily for at least 3 day prior to and 4 days following the administration of each chelator. Each of the two chelators (Apo6619 and Apo6617) was administered consecutively. Chelators were administered as a single dose of 450 μmoles/kg by oral gavage at a dose volume of 2-4 mL/kg. The animals were weighed prior to dosing to enable exact dosage administration. Animals were checked daily (eyes, skin and movement) after chelator administration to determine if there were any obvious signs of ill health. Urine and feces were stored at −20° C. until analysis for total iron concentrations.
Rats were housed in a climate and light controlled environment (temperature: 19-25° C., relative humidity 40%, 12 hrs light/dark cycle) throughout the study. During the acclimatization, iron loading and equilibration phases, rats were placed in standard cages (2 rats/cage), fed standard rodent chow and given regular tap water ad libitum. Rats were transferred to metabolic cages (one rat/cage, Nalgene, Rochester N.Y.) after iron loading and equilibration. Three days before placement of the rats in the metabolic cages, rats were fed a low iron diet (3 ppm iron, Dyets Inc., Bethlehem, Pa.) and given Millipore water ad libitum. Rats were continued on the low iron diet for the duration of the study. The purpose of placing animals on a low iron diet was to reduce the background noise produced by dietary iron in the fecal samples.
A 50 mg/ml dosing solution of the chelator of formula I (570 mg) was first dissolved in a mixture of Millipore water (2 ml) and 6N HCl (0.4 ml) and brought up to the final volume (11.4 ml) with Millipore water (9 ml). Final pH of the solutions was adjusted to pH 4 with diluted sodium hydroxide solution. Solutions were protected from light and prepared freshly prior to each administration.
Urine and feces samples were shipped to the Trace Elements Laboratory at the London Health Sciences Center, London, Ontario, Canada for analysis of total iron concentration. Briefly, feces samples were prepared by adding water, heating to 98° C., vortexing and subsequently freeze drying. The samples were then mixed, and a representative subsample taken and digested with boiling HNO3 and H2O2. Feces samples were then diluted 1:100 with ultrapure water prior to running using a high resolution sector field ICP-MS (Finnigan Element 1). Urine samples were digested with 0.1% HNO3 and diluted 1/10 prior to running on the ICP-MS. Appropriate calibration curves using iron spiked samples and NIST traceable standards were used. Samples lying above or below the quantification range were re-run. […]

[3] = single oral dose 450 μmoles/kg, n=6

SMILES	Log β3 [1]	pFe^3+ [1]	urinary excretion of iron compared with deferiprone [2]	Fecal excretion (fecal iron, three days after chelator administration) [2] [µg/day/kg]	urinary iron excretion one day after chelator administration [2, 3] [µg/day/kg]	urinary iron excretion second day after chelator administration [2, 3]	PM Fe(III) ([1]; pH 7.4, ligand 10 μM, metal 1 μM)	urinary iron excretion third day after chelator administration [2, 3] [µg/day/kg]
Cc1cc(=O)c(O)c(C(=O)NC2CC2)n1C [Apo6617, 3-Hydroxy-1,6-dimethyl-4-oxo-1,4-dihydro-pyridine-2-carboxylic Acid Cyclopropylamide]	33.6	20.8	significantly higher than deferiprone	4411 ± 790	164 ± 55	17 ± 13 µg/day/kg		
CNC(=O)c1c(O)c(=O)cc(C)n1C1CC1 [Apo6619, 1-Cyclopropyl-3-hydroxy-6-methyl-4-oxo-1,4-dihydro-pyridine-2-carboxylic Acid Methylamide]	33.4	20.7	significantly higher than deferiprone	4154 ± 1245	240 ± 131	16 ± 5 µg/day/kg	20.5	5 ± 1
Cc1c(O)c(=O)ccn1C [deferiprone, 1,2-dimethyl-3-hydroxy-4-pyridinone, reference compound]	36.3	19.7		2157 ± 169	80 ± 32	returned to baseline		
